For data set [1], the target named is T1, NLRP3 (Homo sapiens (Human), UniProt Q96P20). The data set is described as follows: THP-1 cells pyroptosis assay (LPS + nigericin, resazurin read-out). Format: cell-based. Particulars: 1 μg/ml LPS, 5 μM nigericin. Summed up:
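LPS-primed (1 μg/ml) human THP-1 cells in serum-free RPMI were exposed to compound (8-point half-log series, top dose as printed "10M") for 3 h at 37 °C, then to nigericin 5 μM for 1 h. Remaining viability was read by resazurin (100 μM, 1-2 h) fluorescence, and IC50 came from 4-parameter variable-slope regression.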
On the technique in general: Resazurin is reduced to fluorescent resorufin, in cell work by metabolically active cells.

Data set [2] deals with T1, NLRP3. The data set is described as follows: Human whole blood IL1β release assay (LPS + nigericin). It is filed as cell-based. As for the experimental part:
For systemic delivery, the ability to inhibit NLRP3 when the compounds are present within the bloodstream is of great importance. For this reason, the NLRP3 inhibitory activity of a number of compounds in human whole blood was investigated in accordance with the following protocol.
Human whole blood in Li-heparin tubes was obtained from healthy donors from a volunteer donor panel. • 1. Plate out 80 μl of whole blood containing 1 μg/ml of LPS in 96-well, clear bottom cell culture plate (Corning #3585) • 2. Add 10 μl compound (8 points half-log dilution with 10 μM top dose) or vehicle (DMSO 0.1% FAC) to the appropriate wells • 3. Incubate for 3 hrs at 37° C., 5% CO2 • 4. Add 10 μl nigericin (Sigma #N7143) ([…]) to all wells • 5. Incubate for 1 hr at 37° C., 5% CO2 • 6. At the end of the incubation period, spin plates at 30×g for 5 mins to pellet cells and remove 20 μl of supernatant and add to 96-well v-bottom plates for IL-1β analysis (note: these plates containing the supernatants can be stored at −80° C. to be analysed at a later date) • 7. IL-1β was measured according to the manufacturer protocol (Perkin Elmer-AlphaLisa IL-Kit A[220F-5000) • 8. IC50 data is fitted to a non-linear regression equation (log inhibitor vs response-variable slope 4-parameters)

Data set [3] in a line: PK, intravenous administration. It is filed as in vivo, male Sprague Dawley rats. Particulars: male, Sprague Dawley, rat. As for the experimental part: Pharmacokinetic parameters were determined in male Sprague Dawley rats (Charles River, UK, 250-300 g; or Vital River Laboratory Animal Technology Co Ltd, Beijing, China, 7-9 weeks old). Animals were individually housed during the study and maintained under a 12 h light/dark cycle. Animals had free access to food and water except that orally dosed animals were food deprived overnight prior to the study. For intravenous administration, compounds were formulated as a solution in water or DMSO:PBS [10:90] in 2 mL/kg dosing volume and administered via tail vein. For oral administration, compounds were formulated as a solution in water or DMSO:water [10:90] in 5 mL/kg dosing volume and administered orally. Serial blood samples (about 120-300 μL) were taken from each animal at each of 8 time-points post dose (0.083, 0.25, 0.5, 1, 2, 4, 8 and 24 h). Samples were held on ice for no longer than 30 minutes before centrifugation (10,000 rpm (8,385 g) for 3 minutes; or 5,696 rpm (3,000 g) for 15 minutes) for plasma generation. Plasma was frozen on dry ice prior to bioanalysis. PK parameters were generated from LC-MS/MS data using Dotmatics or Phoenix WinNonlin 6.3 software.

The mark [4] stands for this setting: human whole blood, 1 μg/ml LPS, nigericin, IL-1β release, read-out: HWB IC50.
[5] abbreviates: plasma, intravenous, dose 1 mg/kg, read-out: AUC.
Where [6] appears, read: plasma, intravenous, dose 1 mg/kg, read-out: Cl.
The mark [7] stands for this setting: plasma, intravenous, dose 1 mg/kg, read-out: T1/2 (converted).
Where [8] appears, read: plasma, intravenous, dose 1 mg/kg, read-out: Vdss.

Structures can show the parent of a compound that is named as a salt. Where two headings read alike, the source gives them in different places. Where only a bound is given, the exact number is not on record here.

The term IC50 denotes the midpoint of a concentration-inhibition curve. For orientation: AUC means the area under the concentration-time curve, a measure of exposure.

T1 sequence (Q96P20 whole entry): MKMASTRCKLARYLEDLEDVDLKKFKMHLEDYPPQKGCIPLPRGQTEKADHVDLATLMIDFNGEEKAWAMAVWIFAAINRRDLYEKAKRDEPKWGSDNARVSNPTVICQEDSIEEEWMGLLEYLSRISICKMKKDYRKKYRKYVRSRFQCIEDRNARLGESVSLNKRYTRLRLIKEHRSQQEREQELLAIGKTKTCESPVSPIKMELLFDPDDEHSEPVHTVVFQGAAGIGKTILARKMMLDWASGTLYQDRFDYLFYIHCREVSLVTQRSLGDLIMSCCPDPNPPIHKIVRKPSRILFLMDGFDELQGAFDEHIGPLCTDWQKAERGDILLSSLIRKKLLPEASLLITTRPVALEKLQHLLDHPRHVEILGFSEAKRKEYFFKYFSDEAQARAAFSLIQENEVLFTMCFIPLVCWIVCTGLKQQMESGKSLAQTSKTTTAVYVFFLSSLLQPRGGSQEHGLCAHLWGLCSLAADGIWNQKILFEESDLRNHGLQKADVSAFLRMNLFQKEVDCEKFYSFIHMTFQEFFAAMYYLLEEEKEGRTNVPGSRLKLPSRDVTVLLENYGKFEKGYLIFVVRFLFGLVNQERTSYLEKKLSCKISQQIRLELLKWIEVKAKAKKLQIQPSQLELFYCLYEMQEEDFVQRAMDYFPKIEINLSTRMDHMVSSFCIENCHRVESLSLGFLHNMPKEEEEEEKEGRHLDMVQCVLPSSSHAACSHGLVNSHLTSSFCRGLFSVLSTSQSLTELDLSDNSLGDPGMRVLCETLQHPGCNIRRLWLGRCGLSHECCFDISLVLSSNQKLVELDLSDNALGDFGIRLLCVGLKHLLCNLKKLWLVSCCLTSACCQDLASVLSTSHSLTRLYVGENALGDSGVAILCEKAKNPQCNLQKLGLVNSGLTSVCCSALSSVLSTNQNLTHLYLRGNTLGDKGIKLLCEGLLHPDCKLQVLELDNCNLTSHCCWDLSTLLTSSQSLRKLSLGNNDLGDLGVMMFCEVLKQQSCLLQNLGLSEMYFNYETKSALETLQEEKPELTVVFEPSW

`C#CCN1CCC(S(=O)(=O)NC(=O)Nc2c3c(cc4c2CCC4)CCC3)CC1` [Example 2, N-((1,2,3,5,6,7-Hexahydro-s-indacen-4-yl)carbamoyl)-1-(prop-2-yn-1-yl)piperidine-4-sulfonamide, potassium salt]: the IC50 in data set [1] and in data set [2] (setting [4]) was 1000 to 10000 nM in each case.
For the molecule `O=C(Nc1c2c(cc3c1CCC3)CCC2)NS(=O)(=O)C1CCNCC1` [Example 4, N-((1,2,3,5,6,7-Hexahydro-s-indacen-4-yl)carbamoyl)-piperidine-4-sulfonamide, potassium salt], the IC50 in data set [1] and in data set [2] (setting [4]) was 1000 to 10000 nM each time.
Consider `CC(C)NC(=O)N1CCC(S(=O)(=O)NC(=O)Nc2c3c(cc4c2CCC4)CCC3)CC1` [Example 5, 4-(N-((1,2,3,5,6,7-Hexahydro-s-indacen-4-yl)carbamoyl)sulfamoyl)-N-isopropylpiperidine-1-carboxamide, potassium salt], for which the IC50 is less than 1000 nM in data set [1] and 1000 to 10000 nM in data set [2] (setting [4]).
The like results for `O=C(Nc1c2c(cc3c1CCC3)CCC2)NS(=O)(=O)C1CCN(C(=O)C2CC2)CC1` [Example 7, 1-(Cyclopropanecarbonyl)-N-((1,2,3,5,6,7-hexahydro-s-indacen-4-yl)carbamoyl)piperidine-4-sulfonamide, potassium salt] were, in that order, less than 1000 nM and 1000 to 10000 nM.
On the same counts, the results for `O=C(Nc1c2c(cc3c1CCC3)CCC2)NS(=O)(=O)C1CCN(C(=O)C(F)(F)F)CC1` [Example 8, N-((1,2,3,5,6,7-Hexahydro-s-indacen-4-yl)carbamoyl)-1-(2,2,2-trifluoroacetyl)piperidine-4-sulfonamide, potassium salt] are 1000 to 10000 nM and less than 1000 nM.
As for `COC(=O)N1CCC(S(=O)(=O)NC(=O)Nc2c3c(cc4c2CCC4)CCC3)CC1` [Example 13, Methyl 4-(N-((1,2,3,5,6,7-hexahydro-s-indacen-4-yl)carbamoyl)sulfamoyl)piperidine-1-carboxylate, potassium salt], the IC50 in data set [1] was less than 1000 nM; in data set [2] (setting [4]), greater than 10000 nM.
The like results for `CCN1CC(N2CCC(S(=O)(=O)NC(=O)Nc3c4c(cc5c3CCC5)CCC4)CC2)C1` [Example 24, 1-(1-Ethylazetidin-3-yl)-N-((1,2,3,5,6,7-hexahydro-s-indacen-4-yl)carbamoyl)piperidine-4-sulfonamide, potassium salt] were, in that order, less than 1000 nM and less than 1000 nM.
The like results for `CCC(=O)N1CCCC(S(=O)(=O)NC(=O)Nc2c3c(cc4c2CCC4)CCC3)C1` (stereo not drawn) [Example 32, N-((1,2,3,5,6,7-Hexahydro-s-indacen-4-yl)carbamoyl)-1-propionylpiperidine-3-sulfonamide, potassium salt] were, in that order, 1000 to 10000 nM and 1000 to 10000 nM.
The like results for `O=C(Nc1c2c(cc3c1CCC3)CCC2)NS(=O)(=O)C1CCCN(CCF)C1` (stereo not drawn) [Example 34, 1-(2-Fluoroethyl)-N-((1,2,3,5,6,7-hexahydro-s-indacen-4-yl)carbamoyl)piperidine-3-sulfonamide, potassium salt] were, in that order, less than 1000 nM and 1000 to 10000 nM.
For the molecule `O=C(Nc1c2c(cc3c1CCC3)CCC2)NS(=O)(=O)C1CNc2ccccc2C1` (stereo not drawn) [Example 35, N-((1,2,3,5,6,7-Hexahydro-s-indacen-4-yl)carbamoyl)-1,2,3,4-tetrahydroquinoline-3-sulfonamide, potassium salt], the IC50 was less than 1000 nM in data set [1] and greater than 10000 nM in data set [2] (setting [4]).
In the case of `CCN1CCC(S(=O)(=O)NC(=O)Nc2c3c(cc4c2CCC4)CCC3)C1` (stereo not drawn) [Example 37, 1-Ethyl-N-((1,2,3,5,6,7-hexahydro-s-indacen-4-yl)carbamoyl) pyrrolidine-3-sulfonamide, potassium salt], in data set [3] (plasma, intravenous, dose 1.46 mg/kg, read-out: AUC), the AUC was 2250 ng·h/mL. For the same molecule, the clearance in data set [3] (plasma, intravenous, dose 1.46 mg/kg, read-out: Cl) was determined as 10.8 mL/min/kg. The half-life in data set [3] (plasma, intravenous, dose 1.46 mg/kg, read-out: T1/2 (converted)) was 2.1 h. The Vd in data set [3] (plasma, intravenous, dose 1.46 mg/kg, read-out: Vdss) was determined as 0.59 L/kg.
Consider `CC(C)N1[C@@H]2CC[C@H]1C[C@@H](S(=O)(=O)NC(=O)Nc1c3c(cc4c1CCC4)CCC3)C2` [Example 45, (1R*,3R*,5S*)—N-((1,2,3,5,6,7-Hexahydro-s-indacen-4-yl)carbamoyl)-8-isopropyl-8-azabicyclo[3.2.i]octane-3-sulfonamide, potassium salt], for which, in data set [3] (in vivo, iv, 0.66 mg/kg), the AUC stood at 703 ng·h/mL, the Vd is 2.06 L/kg, the clearance was determined as 15.6 mL/min/kg and the half-life is 3.3 h.
In data set [3] (in vivo, iv, 1.86 mg/kg), `CCN1[C@@H]2CC[C@H]1C[C@H](S(=O)(=O)NC(=O)Nc1c3c(cc4c1CCC4)CCC3)C2` [Example 70, N-((1,2,3,5,6,7-Hexahydro-s-indacen-4-yl)carbamoyl)-8-ethyl-8-azabicyclo[3.2.1]octane-3-sulfonamide exo isomers, potassium salt] showed an exposure (AUC) of 2550 ng·h/mL, a Vd of 0.53 L/kg, a clearance of 12.1 mL/min/kg and a half-life of 1.7 h.
As to `O=C(Nc1c2c(cc3c1CCC3)CCC2)NS(=O)(=O)C1CN(Cc2ccccc2)C1` [Example 72, 1-Benzyl-N-((1,2,3,5,6,7-hexahydro-s-indacen-4-yl)carbamoyl) azetidine-3-sulfonamide, potassium salt], the IC50 in data set [2] (setting [4]) lay in the range of 1000 to 10000 nM.
`O=C(Nc1c2c(cc3c1CCC3)CCC2)NS(=O)(=O)C1CN(CCCl)C1` [Example 92, 1-(2-Chloroethyl)-N-((1,2,3,5,6,7-hexahydro-s-indacen-4-yl)carbamoyl)azetidine-3-sulfonamide, potassium salt]: in data set [2], the IC50 was 1000 to 10000 nM.
As to `[N-]=[N+]=NCCN1CC(S(=O)(=O)NC(=O)Nc2c3c(cc4c2CCC4)CCC3)C1` [Example 95, 1-(2-Azidoethyl)-N-((1,2,3,5,6,7-hexahydro-s-indacen-4-yl)carbamoyl)azetidine-3-sulfonamide, potassium salt], the IC50 in data set [2] (setting [4]) was 1000 to 10000 nM.
As to `O=C(Nc1c2c(cc3c1CCC3)CCC2)NS(=O)(=O)C1CN(C2CCCC2)C1` [Example 99, 1-Cyclopentyl-N-((1,2,3,5,6,7-hexahydro-s-indacen-4-yl)carbamoyl)azetidine-3-sulfonamide, potassium salt], in data set [3] (setting [5]), the AUC turned out to be 1670 ng·h/mL. The clearance in data set [3] (setting [6]) was determined as 10 mL/min/kg. In addition, in data set [3] (setting [7]), the half-life is 0.6 h. The Vd in data set [3] (setting [8]) is 0.42 L/kg.
Take `O=C(Nc1c2c(cc3c1CCC3)CCC2)NS(=O)(=O)C1CN(Cc2cncnc2)C1` [Example 125, N-((1,2,3,5,6,7-Hexahydro-s-indacen-4-yl)carbamoyl)-1-(pyrimidin-S-ylmethyl)azetidine-3-sulfonamide, potassium salt]: the IC50 in data set [2] (setting [4]) lay within 1000 to 10000 nM.
As for `COc1cc(-c2ccc3c(c2NC(=O)NS(=O)(=O)c2cn(C(C)C)c(=O)cn2)CCC3)ccn1` [Example 156, 4-Isopropyl-N-((5-(2-methoxypyridin-4-yl)-2,3-dihydro-11H-inden-4-yl)carbamoyl)-S-oxo-4,5-dihydropyrazine-2-sulfonamide], the AUC in data set [3] (setting [5]) came out at 1520 ng·h/mL. For the same molecule, the clearance in data set [3] (setting [6]) was 11 mL/min/kg. For the same molecule, the half-life in data set [3] (setting [7]) was 1 h. Also, the Vd in data set [3] (setting [8]) was determined as 0.31 L/kg.
As to `CCN1CCC(S(=O)(=O)NC(=O)Nc2c3c(cc4c2CCC4)CC=C3)CC1` [Example 189, 1-Ethyl-N-((1,2,3,7-tetrahydro-s-indacen-4-yl)carbamoyl) piperidine-4-sulfonamide, potassium salt], the IC50 in data set [2] (setting [4]) was in the range of 1000 to 10000 nM.
